Source: ChEMBL document CHEMBL1201862, “PubChem BioAssay data set” (2004)
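Values below derive from 48-hour exposures of cells grown in 96-well plates, with endpoints linearly interpolated between the two concentrations bracketing the appropriate inhibition level. Abbreviation: GI50, concentration required for 50% inhibition of growth.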 Activity calls are given as the source filed them. Cut-off read from the data, not from the text of the source: active = GI50 up to about 1.1 µM and inactive = higher.

Legend:
Assay in all cases: DTP human tumour cell line panel, 48 h
HOP-92 = tested on: HOP-92
SNB-19 = tested on: SNB-19
SK-MEL-28 = tested on: SK-MEL-28
DU-145 = tested on: DU-145
SN12C = tested on: SN12C
NCI-H522 = tested on: NCI-H522
K562 = tested on: K562
A549 = tested on: A549
BT-549 = tested on: BT-549
M14 = tested on: M14
CCRF-CEM = tested on: CCRF-CEM
HT-29 = tested on: HT-29
RXF 393 = tested on: RXF 393
SW-620 = tested on: SW-620
786-0 = tested on: 786-0
MDA-N = tested on: MDA-N
OVCAR-4 = tested on: OVCAR-4
SNB-75 = tested on: SNB-75
SF-539 = tested on: SF-539
UACC-62 = tested on: UACC-62
MDA-MB-231 = tested on: MDA-MB-231
KM12 = tested on: KM12
PC-3 = tested on: PC-3
HL-60 = tested on: HL-60
TK-10 = tested on: TK-10
A498 = tested on: A498
SF-268 = tested on: SF-268
SR = tested on: SR
OVCAR-3 = tested on: OVCAR-3
NCI/ADR-RES = tested on: NCI/ADR-RES
Malme-3M = tested on: Malme-3M
LOX IMVI = tested on: LOX IMVI
U-251 = tested on: U-251
HCT-116 = tested on: HCT-116
SF-295 = tested on: SF-295
COLO 205 = tested on: COLO 205
NCI-H226 = tested on: NCI-H226
UO-31 = tested on: UO-31
OVCAR-5 = tested on: OVCAR-5
UACC-257 = tested on: UACC-257
ACHN = tested on: ACHN
CAKI-1 = tested on: CAKI-1
MOLT-4 = tested on: MOLT-4
MDA-MB-435 = tested on: MDA-MB-435
SK-OV-3 = tested on: SK-OV-3
MCF7 = tested on: MCF7
NCI-H23 = tested on: NCI-H23
OVCAR-8 = tested on: OVCAR-8
HCT-15 = tested on: HCT-15
Hs-578T = tested on: Hs-578T
EKVX = tested on: EKVX
SK-MEL-5 = tested on: SK-MEL-5
SK-MEL-2 = tested on: SK-MEL-2
IGROV-1 = tested on: IGROV-1
NCI-H460 = tested on: NCI-H460
HOP-62 = tested on: HOP-62
HCC 2998 = tested on: HCC 2998
T47D = tested on: T47D
RPMI-8226 = tested on: RPMI-8226

SMILES: Cc1nc2c(O)c3c(c(O)c2nc1C)C1C=CC3CC1
- GI50 (HOP-92): 2.9 µM (inactive)
- GI50 (SNB-19): > 64.1 µM (inactive)
- GI50 (SK-MEL-28): 16.4 µM (inactive)
- GI50 (DU-145): > 75.3 µM (inactive)
- GI50 (SN12C): 12.7 µM (inactive)
- GI50 (NCI-H522): 16 µM (inactive)
- GI50 (K562): 2.09 µM (inactive)
- GI50 (A549): 24.9 µM (inactive)
- GI50 (BT-549): 15.7 µM (inactive)
- GI50 (M14): 15.3 µM (inactive)
- GI50 (CCRF-CEM): 1.25 µM (inactive)
- GI50 (HT-29): 21.4 µM (inactive)
- GI50 (RXF 393): 9.23 µM (inactive)
- GI50 (SW-620): 12.4 µM (inactive)
- GI50 (786-0): 13.9 µM (inactive)
- GI50 (MDA-N): 2.97 µM (inactive)
- GI50 (OVCAR-4): 3.06 µM (inactive)
- GI50 (SNB-75): 32.2 µM (inactive)
- GI50 (SF-539): 14.6 µM (inactive)
- GI50 (UACC-62): 21.2 µM (inactive)
- GI50 (MDA-MB-231): 3.02 µM (inactive)
- GI50 (KM12): 15.7 µM (inactive)
- GI50 (PC-3): 9.35 µM (inactive)
- GI50 (HL-60): 0.973 µM (active)
- GI50 (TK-10): 20.6 µM (inactive)
- GI50 (A498): 42.9 µM (inactive)
- GI50 (SF-268): 10.4 µM (inactive)
- GI50 (SR): 9.59 µM (inactive)
- GI50 (OVCAR-3): 6.22 µM (inactive)
- GI50 (NCI/ADR-RES): 3.71 µM (inactive)
- GI50 (Malme-3M): 12.7 µM (inactive)
- GI50 (LOX IMVI): 3.53 µM (inactive)
- GI50 (U-251): 9.44 µM (inactive)
- GI50 (HCT-116): 6.27 µM (inactive)
- GI50 (SF-295): 29.7 µM (inactive)
- GI50 (COLO 205): 19.7 µM (inactive)
- GI50 (NCI-H226): 29.6 µM (inactive)
- GI50 (UO-31): 12 µM (inactive)
- GI50 (OVCAR-5): 18.3 µM (inactive)
- GI50 (UACC-257): 7.24 µM (inactive)
- GI50 (ACHN): 11.2 µM (inactive)
- GI50 (CAKI-1): 7.57 µM (inactive)
- GI50 (MOLT-4): 1.06 µM (active)
- GI50 (MDA-MB-435): 3.04 µM (inactive)
- GI50 (SK-OV-3): 22 µM (inactive)
- GI50 (MCF7): 9.75 µM (inactive)
- GI50 (NCI-H23): 5.86 µM (inactive)
- GI50 (OVCAR-8): 7.45 µM (inactive)
- GI50 (HCT-15): 17.1 µM
- GI50 (Hs-578T): 32.1 µM (inactive)
- GI50 (EKVX): 11 µM (inactive)
- GI50 (SK-MEL-5): 14 µM (inactive)
- GI50 (SK-MEL-2): 11.8 µM (inactive)
- GI50 (IGROV-1): 7.31 µM (inactive)
- GI50 (NCI-H460): 30.3 µM (inactive)
- GI50 (HOP-62): 19.6 µM (inactive)
- GI50 (HCC 2998): > 40.2 µM (inactive)
- GI50 (T47D): 2.79 µM (inactive)
- GI50 (RPMI-8226): 2.92 µM (inactive)

SMILES: COC(=O)c1ccc(CCC2=CC(=O)C(Br)=CC2=O)cc1
- GI50 (HOP-92): 5.14 µM (inactive)
- GI50 (SNB-19): 15.6 µM (inactive)
- GI50 (SK-MEL-28): 16.7 µM (inactive)
- GI50 (DU-145): 18.1 µM (inactive)
- GI50 (SN12C): 17.5 µM (inactive)
- GI50 (NCI-H522): 2.68 µM (inactive)
- GI50 (K562): 2.21 µM (inactive)
- GI50 (A549): 19.4 µM (inactive)
- GI50 (BT-549): 11.6 µM (inactive)
- GI50 (M14): 14.7 µM (inactive)
- GI50 (CCRF-CEM): 0.615 µM (active)
- GI50 (HT-29): 16.7 µM (inactive)
- GI50 (RXF 393): 18.3 µM (inactive)
- GI50 (SW-620): 13.6 µM (inactive)
- GI50 (786-0): 19.8 µM (inactive)
- GI50 (MDA-N): 16 µM (inactive)
- GI50 (OVCAR-4): 17.2 µM (inactive)
- GI50 (SNB-75): 14 µM (inactive)
- GI50 (SF-539): 17.8 µM (inactive)
- GI50 (UACC-62): 17.8 µM (inactive)
- GI50 (MDA-MB-231): 18.6 µM (inactive)
- GI50 (KM12): 15.2 µM (inactive)
- GI50 (PC-3): 16.9 µM (inactive)
- GI50 (HL-60): 2 µM (inactive)
- GI50 (TK-10): 17.3 µM (inactive)
- GI50 (A498): 20.2 µM (inactive)
- GI50 (SF-268): 19.8 µM (inactive)
- GI50 (SR): 2.97 µM (inactive)
- GI50 (OVCAR-3): 15.3 µM (inactive)
- GI50 (NCI/ADR-RES): 18.7 µM (inactive)
- GI50 (Malme-3M): 16.9 µM (inactive)
- GI50 (LOX IMVI): 17.5 µM (inactive)
- GI50 (U-251): 16.7 µM (inactive)
- GI50 (HCT-116): 16 µM (inactive)
- GI50 (SF-295): 19.5 µM (inactive)
- GI50 (COLO 205): 6.78 µM (inactive)
- GI50 (NCI-H226): 14.7 µM (inactive)
- GI50 (UO-31): 15.8 µM (inactive)
- GI50 (OVCAR-5): 18.8 µM (inactive)
- GI50 (UACC-257): 15.6 µM (inactive)
- GI50 (ACHN): 12.6 µM (inactive)
- GI50 (CAKI-1): 13.6 µM (inactive)
- GI50 (MOLT-4): 2.47 µM (inactive)
- GI50 (MDA-MB-435): 16.1 µM (inactive)
- GI50 (SK-OV-3): 17.8 µM (inactive)
- GI50 (MCF7): 16.5 µM (inactive)
- GI50 (NCI-H23): 15.1 µM (inactive)
- GI50 (OVCAR-8): 16.3 µM (inactive)
- GI50 (HCT-15): 14.5 µM
- GI50 (Hs-578T): 20.4 µM (inactive)
- GI50 (EKVX): 19 µM (inactive)
- GI50 (SK-MEL-5): 12.1 µM (inactive)
- GI50 (SK-MEL-2): 17.1 µM (inactive)
- GI50 (IGROV-1): 15 µM (inactive)
- GI50 (NCI-H460): 18.2 µM (inactive)
- GI50 (HOP-62): 17.8 µM (inactive)
- GI50 (HCC 2998): 15.7 µM (inactive)
- GI50 (T47D): 21.5 µM (inactive)
- GI50 (RPMI-8226): 10.2 µM (inactive)
